Measured values from patent US20100272717A1, “COMBINATIONS OF THERAPEUTIC AGENTS FOR TREATING CANCER” (NOVARTIS AG, priority 2007, published 2010).

What was measured:
Assay type in all cases: in vivo
[1] = tested on: MDA-MB-231 human breast adenocarcinoma xenograft; assay: MDA-MB-231 human breast adenocarcinoma xenograft model, anti-tumor activity and tolerability; details: FIG. 1
Method: The effect of 5,6-dimethylxanthenone-4-acetic acid (Compound A) and 2-methyl-2-[4-(3-methyl-2-oxo-8-quinolin-3-yl-2,3-dihydro-imidazo[4,5-c]quinolin-1-yl)-phenyl]-propionitrile (Compound B) are evaluated for their anti-tumor activity using the MDA-MB-231 human breast adenocarcinoma xenograft model.
(§1) Interactions of combinations can be approximated using a combination index presented by Clark (Breast Cancer Research and Treatment 46, 255-278 (1997)). Taking A to be the activity (T/C) of compound A given alone; B to be the activity of compound B given alone; C the activity in the vehicle controls and AB to be the activity in the combination. A+B, the following formulae can be applied: synergy−(AB)/C<(A/C)×B/C), additive−(AB)/C=(A/C)×(B/C) and antagonistic−(AB)/C>(A/C)×(B/C). […] For example if, the triple combination of A+B+C is to be compared to the activity of the three agents given alone then taking D to be the activity of the vehicle controls the formula defining synergy would be (ABC)/D<(A/D)×(B/D)×(C/D).

[2] = tested on: BT-474 human breast ductal carcinoma xenograft; assay: BT-474 human breast ductal carcinoma xenograft model, anti-tumor activity and tolerability; details: FIG. 7; Compound A 20 mg/kg intravenously on days 1, 5 and 9
From the text: as §1

[3] = tested on: MCF-7 human breast adenocarcinoma xenograft; assay: MCF-7 human breast adenocarcinoma xenograft model, anti-tumor activity and tolerability; details: for anti-tumor activity: FIG. 6 experiment, dose not stated
From the text: A+B, the following formulae can be applied: synergy−(AB)/C<(A/C)×B/C), additive−(AB)/C=(A/C)×(B/C) and antagonistic−(AB)/C>(A/C)×(B/C). […] For example if, the triple combination of A+B+C is to be compared to the activity of the three agents given alone then taking D to be the activity of the vehicle controls the formula defining synergy would be (ABC)/D<(A/D)×(B/D)×(C/D).

[4] = tested on: A549 human non-small cell lung carcinoma xenograft; assay: A549 human non-small cell lung carcinoma xenograft model, anti-tumor activity and tolerability
From the text: as §1
The effects of Compound A and Compound B are evaluated for their anti-tumor activity using the A549 human non-small cell lung carcinoma xenograft model.
The effects of 5,6-dimethylxanthenone-4-acetic acid (Compound A) and 4-amino-5-fluoro-3-[5-(4-methylpiperazin-1-yl)-1H-benzimidazol-2-yl]quinolin-2(1H)-one (Compound C) are evaluated for their anti-tumor activity using the A549 human non-small cell lung carcinoma xenograft model.
The effects of 5,6-dimethylxanthenone-4-acetic acid (Compound A) and everolimus are evaluated for their anti-tumor activity using the A549 human non-small cell lung carcinoma xenograft model.
The effect of 5,6-dimethylxanthenone-4-acetic acid (Compound A) and patupilone are evaluated for their anti-tumor activity using the A549 human non-small cell lung carcinoma xenograft model.

Cc1ccc2c(=O)c3cccc(CC(=O)O)c3oc2c1C [Compound A, 5,6-dimethylxanthenone-4-acetic acid]
anti-tumor activity (tumor growth) ([1]; Compound A 18.6 mg/kg intravenously on days 1, 5 and 9): inhibition of tumor growth | anti-tumor activity (tumor growth) [2]: inhibition of tumor growth | anti-tumor activity (tumor growth) ([3]; FIG. 6, Compound A 20 mg/kg intravenously on days 1, 5 and 9): inhibition of tumor growth | anti-tumor activity (tumor growth) ([4]; in vivo, ip, 15 mg/kg): inhibition of tumor growth

Cn1c(=O)n(-c2ccc(C(C)(C)C#N)cc2)c2c3cc(-c4cnc5ccccc5c4)ccc3ncc21 [Compound B, 2-methyl-2-[4-(3-methyl-2-oxo-8-quinolin-3-yl-2,3-dihydro-imidazo[4,5-c]quinolin-1-yl)-phenyl]-propionitrile]
anti-tumor activity (tumor growth) ([1]; Compound B alone, several dose levels): dose-dependent inhibition of tumor growth | anti-tumor activity ([4]; FIG. 2, Compound B alone, 20 mg/kg): shows activity

CN1CCN(c2ccc3[nH]c(-c4c(N)c5c(F)cccc5[nH]c4=O)nc3c2)CC1 [Compound C, 4-amino-5-fluoro-3-[5-(4-methylpiperazin-1-yl)-1H-benzimidazol-2-yl]quinolin-2(1H)-one]
anti-tumor activity ([4]; in vivo): dose-dependent activity

CC(=O)O[C@@]12CO[C@@H]1C[C@H](O)[C@@]1(C)C(=O)[C@H](O)C3=C(C)[C@@H](OC(=O)[C@H](O)[C@@H](NC(=O)OC(C)(C)C)c4ccccc4)C[C@@](O)([C@@H](OC(=O)c4ccccc4)[C@H]21)C3(C)C [docetaxel, reference compound]
anti-tumor activity [3]: inhibition of tumor growth

C/C(=C\c1csc(C)n1)[C@@H]1C[C@@H]2O[C@]2(C)CCC[C@H](C)[C@H](O)[C@@H](C)C(=O)C(C)(C)[C@@H](O)CC(=O)O1 [patupilone, (1S,3S,7S,10R,11S,12S,16R,1′E)-7,11-dihydroxy-8,8,10,12,16-pentamethyl-3-[methyl-2-(2-methylthiazol-4-yl)-vinyl]-4,17-dioxabicyclo[14.1.0]heptadecane-5,9-dione, reference compound]
anti-tumor activity (tumor growth) ([4]; FIG. 5, patupilone 2 mg/kg intravenously): inhibition of tumor growth

bevacizumab: monoclonal antibody, marketed as AVASTIN
anti-tumor activity [3]: no anti-tumor activity
